Measurements published in patent US5686486A, “4-hydroxy-benzopyran-2-ones and 4-hydroxy-cycloalkyl[b]pyran-2-ones useful to treat retroviral infections” (priority 1995, dated 1997).
pKi: −log10 of the molar value.

Key:
HIV-1 protease [1] = target: T1, HIV-1 protease (Human immunodeficiency virus type 1 group M subtype B, UniProt P04585); assay: biochemical; settings: read-out: HIV-1 FITC KI
Summary of the method: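 Enzyme (40 nM stock) and substrate (200 μM stock) incubated with inhibitor, 24–48 two-fold serial concentrations, for 90 min at room temperature, then quenched with avidin beads. Nonlinear least-squares analysis gives Ki; a known-Ki inhibitor validates each run.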

HIV-1 protease [2] = target: T1, HIV-1 protease; assay: biochemical; settings: for inhibition at 0.123 µM: read-out: HIV-1 Protease % Inhib, dose 0.123 uM; for inhibition at 0.37 µM: read-out: HIV-1 Protease % Inhib, dose 0.370 uM; for inhibition at 1.1 µM: read-out: HIV-1 Protease % Inhib, dose 1.100 uM; for inhibition at 3.3 µM: read-out: HIV-1 Protease % Inhib, dose 3.300 uM; for inhibition at 10 µM: read-out: HIV-1 Protease % Inhib, dose 10.000 uM; for inhibition at 30 µM: read-out: HIV-1 Protease % Inhib, dose 30.000 uM
Summary of the method: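 Percent inhibition derived from fluorescent cleavage product separated by filtration after streptavidin-bead capture of intact biotin/FITC substrate. Reaction: enzyme (10 μl, 0.1 μM stock) with substrate (20 μl, 0.2 μM stock) and compound, 1 h at room temperature in dark, pH 5.5 acetate buffer with 1.0 M NaCl and 0.05% NP-40.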

SMILES	pKi (HIV-1 protease [1])	inhibition at 0.123 µM (HIV-1 protease [2])	inhibition at 0.37 µM (HIV-1 protease [2])	inhibition at 1.1 µM (HIV-1 protease [2])	inhibition at 3.3 µM (HIV-1 protease [2])	inhibition at 10 µM (HIV-1 protease [2])	inhibition at 30 µM (HIV-1 protease [2])
O=C(NCc1ccc(S(=O)(=O)Nc2cccc(C(c3c(O)c4c(oc3=O)CCCCCC4)C3CC3)c2)s1)c1ccccc1 (stereo not shown) [Example 296, N-[[5-[[[3-[Cyclopropyl(5,6,7,8,9,10-hexahydro-4-hydroxy-2-oxo-2H-cycloocta[b]pyran-3-yl)methyl]phenyl]amino]sulfonyl]-2-thienyl]methyl]-benzamide]	7.62	14.6%	74.8%	95.5%	104%	108%	114%
O=c1oc2c(c(O)c1C(c1cccc(NS(=O)(=O)c3cc(S(=O)(=O)c4ccccc4)cs3)c1)C1CC1)CCCCCC2 (stereo not shown) [Example 298, N-[3-[Cyclopropyl(5,6,7,8,9,10-hexahydro-4-hydroxy-2-oxo-2H-cycloocta[b]pyran-3-yl)methyl]phenyl]4-(phenylsulfonyl)-2-thiophenesulfonamide]	8.60	67.4%	84.6%	94.6%	97.5%	101%	100%
O=c1oc2c(c(O)c1C(c1cccc(NS(=O)(=O)c3ccc(S(=O)(=O)c4ccccc4)s3)c1)C1CC1)CCCCCC2 (stereo not shown) [Example 299, N-[3-[Cyclopropyl(5,6,7,8,9,10-hexahydro-4-hydroxy-2-oxo-2H-cycloocta[b]pyran-3-yl)methyl]phenyl]-5-(phenylsulfonyl)-2-thiophenesulfonamide]	8.64	78.5%	97.8%	97.5%	91.7%	104%	98.4%
O=c1oc2c(c(O)c1C(c1cccc(NS(=O)(=O)c3ccc(Cl)s3)c1)C1CC1)CCCCCC2 (stereo not shown) [Example 301, 5-Chloro-N-[3-[cyclopropyl(5,6,7,8,9,10-hexahydro-4-hydroxy-2-oxo-2H-cycloocta[b]pyran-3-yl)methyl]phenyl]-2-thiophenesulfonamide]	8.32	74.7%	91.2%	102%	100%	104%	114%
O=c1oc2c(c(O)c1C(c1cccc(NS(=O)(=O)c3cc(Cl)c(Cl)s3)c1)C1CC1)CCCCCC2 (stereo not shown) [Example 302, 4,5-Dichloro-N-[3-[cyclopropyl(5,6,7,8,9,10-hexahydro-4-hydroxy-2-oxo-2H-cycloocta[b]pyran-3-yl)methyl]phenyl]-2-thiophenesulfonamide]	8.57	78.6%	97.8%	105%	113%	115%	112%
O=c1oc2c(c(O)c1C(c1cccc(NS(=O)(=O)c3cc(Br)c(Br)s3)c1)C1CC1)CCCCCC2 (stereo not shown) [Example 303, 4,5-Dibromo-N-[3-[cyclopropyl(5,6,7,8,9,10-hexahydro-4-hydroxy-2-oxo-2H-cycloocta[b]pyran-3-yl)methyl]phenyl]-2-thiophenesulfonamide]	8.30	67.4%	96.5%	97.7%	109%	110%	98%
O=c1oc2c(c(O)c1C(c1cccc(NS(=O)(=O)c3cc(Cl)sc3Cl)c1)C1CC1)CCCCCC2 (stereo not shown) [Example 304, 2,5-Dichloro-N-[3-[cyclopropyl(5,6,7,8,9,10-hexahydro-4-hydroxy-2-oxo-2H-cycloocta[b]pyran-3-yl)methyl]phenyl]-3-thiophenesulfonamide]	7.55	25.7%	60.2%	85.9%	97.8%	104%	95.6%
